Activity calls are given as the source filed them.
Legend:
[1] = target: Glycogen synthase kinase-3 beta (Homo sapiens, UniProt P49841); assay: inhibition of human GSK3B activity – biochemical, microfluidics, dry powder samples, set 2, dose response (AID 623989); type: functional
[2] = target: Glycogen synthase kinase-3 alpha (Homo sapiens, UniProt P49840); assay: GSK3A enzyme blockers, homolog specificity check – biochemical, microfluidics, dry powder samples, set 2, selectivity assay for GSK3beta inhibitor project, dose response (AID 623978); type: functional
Glycogen synthase kinase-3 alpha, sequence (P49840 whole entry): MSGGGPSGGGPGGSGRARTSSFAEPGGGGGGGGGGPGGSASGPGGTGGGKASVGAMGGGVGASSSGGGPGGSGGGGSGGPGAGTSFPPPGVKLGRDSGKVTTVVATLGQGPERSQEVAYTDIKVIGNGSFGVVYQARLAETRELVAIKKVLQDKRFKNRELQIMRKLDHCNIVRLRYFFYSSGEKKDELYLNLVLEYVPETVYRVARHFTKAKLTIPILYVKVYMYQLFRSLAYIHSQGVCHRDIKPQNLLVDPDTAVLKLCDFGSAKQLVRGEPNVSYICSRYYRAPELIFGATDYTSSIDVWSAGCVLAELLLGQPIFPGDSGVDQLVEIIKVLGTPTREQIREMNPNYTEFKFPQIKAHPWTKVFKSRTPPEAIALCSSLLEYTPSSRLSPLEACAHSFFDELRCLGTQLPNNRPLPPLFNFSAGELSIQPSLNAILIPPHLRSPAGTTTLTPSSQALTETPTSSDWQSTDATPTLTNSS

[3] = target: Serine/threonine-protein kinase pim-1 (Homo sapiens, UniProt P11309); type: functional
Serine/threonine-protein kinase pim-1, sequence (P11309 whole entry): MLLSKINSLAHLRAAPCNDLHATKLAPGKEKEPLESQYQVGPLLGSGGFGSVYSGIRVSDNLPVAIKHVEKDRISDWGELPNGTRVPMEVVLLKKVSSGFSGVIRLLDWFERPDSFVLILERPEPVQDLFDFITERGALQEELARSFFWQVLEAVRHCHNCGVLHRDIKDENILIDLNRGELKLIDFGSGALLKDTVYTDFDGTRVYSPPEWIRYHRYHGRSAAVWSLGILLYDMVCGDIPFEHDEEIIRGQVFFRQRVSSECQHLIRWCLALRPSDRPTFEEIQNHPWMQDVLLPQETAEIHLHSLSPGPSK

[4] = target: Receptor tyrosine-protein kinase erbB-4 (Homo sapiens, UniProt Q15303); type: functional;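 also: ERBB4 member of a kinome-wide kinase profiling panel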
[5] = target: Calcium/calmodulin-dependent protein kinase type II subunit gamma (Homo sapiens, UniProt Q13555); type: functional
Calcium/calmodulin-dependent protein kinase type II subunit gamma, sequence (Q13555 whole entry): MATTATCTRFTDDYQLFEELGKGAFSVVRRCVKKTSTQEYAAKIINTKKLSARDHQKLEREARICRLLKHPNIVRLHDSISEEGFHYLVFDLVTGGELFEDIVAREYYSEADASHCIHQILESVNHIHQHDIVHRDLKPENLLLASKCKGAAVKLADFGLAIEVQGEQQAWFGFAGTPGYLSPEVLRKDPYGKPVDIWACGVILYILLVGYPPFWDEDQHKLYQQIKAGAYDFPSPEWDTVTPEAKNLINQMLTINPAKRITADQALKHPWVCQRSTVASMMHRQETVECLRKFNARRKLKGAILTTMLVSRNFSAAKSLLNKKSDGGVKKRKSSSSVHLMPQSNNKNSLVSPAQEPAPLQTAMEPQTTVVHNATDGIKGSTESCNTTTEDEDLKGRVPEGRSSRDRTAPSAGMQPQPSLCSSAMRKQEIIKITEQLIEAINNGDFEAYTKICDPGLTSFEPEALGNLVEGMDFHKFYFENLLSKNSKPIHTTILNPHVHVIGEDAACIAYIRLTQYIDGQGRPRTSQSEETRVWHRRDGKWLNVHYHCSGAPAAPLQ

[6] = target: Protein-tyrosine kinase 2-beta (Homo sapiens, UniProt Q14289); type: functional
[7] = target: Casein kinase I isoform alpha (Homo sapiens, UniProt P48729); type: functional
[8] = target: Ribosomal protein S6 kinase beta-1 (Homo sapiens, UniProt P23443); type: functional;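 also: measured as one member of a kinome-wide profiling panel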
[9] = target: Fibroblast growth factor receptor 3 (Homo sapiens, UniProt P22607); type: functional
[10] = target: Protein-tyrosine kinase 6 (Homo sapiens, UniProt Q13882); type: functional
Protein-tyrosine kinase 6, sequence (Q13882 whole entry): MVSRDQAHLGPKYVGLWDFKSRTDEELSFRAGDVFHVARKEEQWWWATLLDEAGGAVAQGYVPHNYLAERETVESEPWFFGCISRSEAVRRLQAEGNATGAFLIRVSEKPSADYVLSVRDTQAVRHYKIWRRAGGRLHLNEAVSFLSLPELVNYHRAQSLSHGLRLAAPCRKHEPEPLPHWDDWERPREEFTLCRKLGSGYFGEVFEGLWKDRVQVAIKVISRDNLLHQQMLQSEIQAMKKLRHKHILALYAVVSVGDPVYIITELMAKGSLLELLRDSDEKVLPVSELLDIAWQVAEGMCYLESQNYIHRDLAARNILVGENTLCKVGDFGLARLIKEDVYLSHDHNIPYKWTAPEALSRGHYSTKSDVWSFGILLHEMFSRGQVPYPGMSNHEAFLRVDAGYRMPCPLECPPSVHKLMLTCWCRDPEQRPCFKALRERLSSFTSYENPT

[11] = target: Mitogen-activated protein kinase 12 (Homo sapiens, UniProt P53778); type: functional;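 also: measured as one member of a kinome-wide kinase profiling panel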
[12] = target: Serine/threonine-protein kinase Chk2 (Homo sapiens, UniProt O96017); type: functional;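 also: CHEK2 entry within a kinome-wide screening panel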
[13] = target: Mitogen-activated protein kinase 8 (Homo sapiens, UniProt P45983); type: functional;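 also: value comes from one member of a kinome-wide kinase profiling panel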
[14] = target: Protein kinase C delta type (Homo sapiens, UniProt Q05655); type: functional
[15] = target: Homeodomain-interacting protein kinase 2 (Homo sapiens, UniProt Q9H2X6); type: functional;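 also: measured within a kinome-wide kinase profiling panel, HIPK2 being one panel member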
[16] = target: Proto-oncogene tyrosine-protein kinase ROS (Homo sapiens, UniProt P08922); type: functional;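 also: ROS1 tested as one member of a kinome-wide kinase panel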
[17] = target: Tyrosine-protein kinase ABL1 (Homo sapiens, UniProt P00519); type: functional
[18] = target: Protein kinase C iota type (Homo sapiens, UniProt P41743); type: functional;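 also: measured within a kinome-wide kinase panel, PRKCI as panel member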
Protein kinase C iota type, sequence (P41743 whole entry): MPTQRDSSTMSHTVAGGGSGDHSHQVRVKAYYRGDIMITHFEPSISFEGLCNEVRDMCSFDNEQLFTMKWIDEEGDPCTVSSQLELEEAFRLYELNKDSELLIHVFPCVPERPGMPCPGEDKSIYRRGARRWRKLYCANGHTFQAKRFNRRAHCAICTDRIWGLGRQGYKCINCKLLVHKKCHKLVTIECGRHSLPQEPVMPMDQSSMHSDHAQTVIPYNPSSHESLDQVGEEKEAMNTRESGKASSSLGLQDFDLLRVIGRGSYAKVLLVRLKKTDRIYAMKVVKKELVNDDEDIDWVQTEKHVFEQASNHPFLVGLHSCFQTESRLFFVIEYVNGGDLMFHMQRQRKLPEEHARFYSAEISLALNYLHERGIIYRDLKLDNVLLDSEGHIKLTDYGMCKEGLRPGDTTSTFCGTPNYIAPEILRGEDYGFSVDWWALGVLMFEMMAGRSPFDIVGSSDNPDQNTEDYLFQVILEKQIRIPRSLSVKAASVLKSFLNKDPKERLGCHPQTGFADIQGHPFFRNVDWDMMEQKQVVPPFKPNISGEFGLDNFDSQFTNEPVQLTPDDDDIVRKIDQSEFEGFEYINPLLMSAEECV

[19] = target: cGMP-dependent protein kinase 1 (Homo sapiens, UniProt Q13976); type: functional;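 also: value from a kinome panel screen with PRKG1 as the panel member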
cGMP-dependent protein kinase 1, sequence (Q13976 whole entry): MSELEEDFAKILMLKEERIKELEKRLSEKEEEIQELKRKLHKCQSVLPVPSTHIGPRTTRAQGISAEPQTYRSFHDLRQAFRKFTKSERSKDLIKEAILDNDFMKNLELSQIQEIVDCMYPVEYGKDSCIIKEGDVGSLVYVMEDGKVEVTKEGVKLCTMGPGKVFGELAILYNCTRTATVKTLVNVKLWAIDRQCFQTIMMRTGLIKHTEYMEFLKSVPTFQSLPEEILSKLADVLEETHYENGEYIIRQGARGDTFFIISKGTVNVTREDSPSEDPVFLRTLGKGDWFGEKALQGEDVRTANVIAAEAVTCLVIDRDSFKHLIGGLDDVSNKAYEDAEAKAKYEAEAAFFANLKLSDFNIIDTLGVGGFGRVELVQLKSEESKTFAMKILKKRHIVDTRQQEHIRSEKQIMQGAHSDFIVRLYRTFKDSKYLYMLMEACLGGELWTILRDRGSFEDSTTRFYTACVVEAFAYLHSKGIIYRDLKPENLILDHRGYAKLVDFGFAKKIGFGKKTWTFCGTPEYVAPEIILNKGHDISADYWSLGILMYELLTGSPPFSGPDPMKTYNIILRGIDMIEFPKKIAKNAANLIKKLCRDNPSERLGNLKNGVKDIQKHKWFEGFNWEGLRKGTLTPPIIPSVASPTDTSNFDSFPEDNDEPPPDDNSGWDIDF

[20] = target: Serine/threonine-protein kinase PAK 1 (Homo sapiens, UniProt Q13153); type: functional
[21] = target: RAC-gamma serine/threonine-protein kinase (Homo sapiens, UniProt Q9Y243); type: functional
[22] = target: Cyclin-dependent kinase 1 (Homo sapiens, UniProt P06493); type: functional;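 also: Kinome-wide panel profiling, with the target listed as panel member CDC2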
[23] = target: Interleukin-1 receptor-associated kinase 4 (Homo sapiens, UniProt Q9NWZ3); type: functional
Interleukin-1 receptor-associated kinase 4, sequence (Q9NWZ3 whole entry): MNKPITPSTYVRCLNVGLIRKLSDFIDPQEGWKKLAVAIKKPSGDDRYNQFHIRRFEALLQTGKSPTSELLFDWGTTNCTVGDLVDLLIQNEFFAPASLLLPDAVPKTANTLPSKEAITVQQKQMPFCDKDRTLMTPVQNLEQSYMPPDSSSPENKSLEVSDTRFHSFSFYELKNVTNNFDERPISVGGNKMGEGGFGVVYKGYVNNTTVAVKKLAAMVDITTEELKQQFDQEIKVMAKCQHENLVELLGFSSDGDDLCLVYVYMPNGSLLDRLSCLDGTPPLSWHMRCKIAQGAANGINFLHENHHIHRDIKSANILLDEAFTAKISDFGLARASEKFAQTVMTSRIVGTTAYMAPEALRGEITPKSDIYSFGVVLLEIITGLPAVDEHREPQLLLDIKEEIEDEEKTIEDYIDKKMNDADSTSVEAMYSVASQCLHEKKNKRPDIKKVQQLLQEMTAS

[24] = target: Rho-associated protein kinase 1 (Homo sapiens, UniProt Q13464); type: functional;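 also: measured within a broad kinome-wide panel profiling many kinases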
[25] = target: MAP kinase-activated protein kinase 3 (Homo sapiens, UniProt Q16644); type: functional;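 also: value comes from a kinome-wide profiling panel in which MAPKAPK3 is one of the panel members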
MAP kinase-activated protein kinase 3, sequence (Q16644 whole entry): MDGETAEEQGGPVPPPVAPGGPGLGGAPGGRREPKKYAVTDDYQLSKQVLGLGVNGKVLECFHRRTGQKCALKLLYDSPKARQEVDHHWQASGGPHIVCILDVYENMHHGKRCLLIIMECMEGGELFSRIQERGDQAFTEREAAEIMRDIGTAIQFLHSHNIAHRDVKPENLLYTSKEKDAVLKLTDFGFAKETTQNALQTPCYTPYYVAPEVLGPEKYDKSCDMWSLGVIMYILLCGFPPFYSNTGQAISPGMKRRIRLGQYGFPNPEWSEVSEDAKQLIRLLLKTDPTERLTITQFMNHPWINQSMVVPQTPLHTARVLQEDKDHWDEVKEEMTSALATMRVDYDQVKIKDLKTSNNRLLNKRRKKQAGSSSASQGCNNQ

[26] = target: Dual specificity tyrosine-phosphorylation-regulated kinase 1A (Homo sapiens, UniProt Q13627); type: functional;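 also: measured against DYRK1A as one member of a broad kinome profiling panel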
[27] = target: Mitogen-activated protein kinase 9 (Homo sapiens, UniProt P45984); type: functional;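 also: value from a kinome panel profiling assay, MAPK9 panel entry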
Mitogen-activated protein kinase 9, sequence (P45984 whole entry): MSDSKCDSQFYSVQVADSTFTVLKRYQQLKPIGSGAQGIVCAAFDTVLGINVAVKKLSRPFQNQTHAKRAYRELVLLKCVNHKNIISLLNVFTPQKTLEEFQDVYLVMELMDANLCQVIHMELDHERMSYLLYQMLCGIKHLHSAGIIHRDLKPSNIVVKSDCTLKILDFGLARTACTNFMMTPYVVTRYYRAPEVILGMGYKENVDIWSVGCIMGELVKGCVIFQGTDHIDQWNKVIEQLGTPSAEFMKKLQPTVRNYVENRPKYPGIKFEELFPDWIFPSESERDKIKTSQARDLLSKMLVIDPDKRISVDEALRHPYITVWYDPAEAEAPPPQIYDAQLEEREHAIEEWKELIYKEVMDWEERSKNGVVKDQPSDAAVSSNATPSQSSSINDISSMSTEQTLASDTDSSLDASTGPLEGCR

[28] = target: T1, Serine/threonine-protein kinase Nek2 (Homo sapiens, UniProt P51955); type: functional
T1 sequence (P51955 whole entry): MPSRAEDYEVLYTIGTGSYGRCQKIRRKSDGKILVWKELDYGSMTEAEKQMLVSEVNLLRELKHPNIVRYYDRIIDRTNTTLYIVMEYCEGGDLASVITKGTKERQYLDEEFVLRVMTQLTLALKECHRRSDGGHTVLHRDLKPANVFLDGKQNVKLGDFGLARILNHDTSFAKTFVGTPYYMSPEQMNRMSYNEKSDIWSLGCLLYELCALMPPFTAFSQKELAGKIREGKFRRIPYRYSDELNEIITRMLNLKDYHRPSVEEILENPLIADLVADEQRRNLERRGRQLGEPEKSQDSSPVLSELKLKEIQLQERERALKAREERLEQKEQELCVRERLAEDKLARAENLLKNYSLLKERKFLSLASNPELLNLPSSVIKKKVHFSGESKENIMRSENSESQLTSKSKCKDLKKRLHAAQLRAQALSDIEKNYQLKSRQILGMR

[29] = target: Serine/threonine-protein kinase D2 (Homo sapiens, UniProt Q9BZL6); type: functional;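 also: measured against PRKD2 as one member of a kinome-wide kinase profiling panel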
LIM domain kinase 1 = LIM domain kinase 1 (Homo sapiens, UniProt P53667); assay: Navigating the Kinome. Panel member name: LIMK1; type: functional
[30] = target: Cyclin-dependent kinase 5 (Homo sapiens, UniProt Q00535); type: functional;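 also: CDK5 measured as one member of a kinase profiling panel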
[31] = target: Serine/threonine-protein kinase MRCK alpha (Homo sapiens, UniProt Q5VT25); type: functional
[32] = target: 72 kDa type IV collagenase (Homo sapiens, UniProt P08253); assay: Dose Response validation of uHTS RPN11 inhibitor hits using a MMP-2 Fluorescence assay.; type: functional
[33] = target: Serine/threonine-protein phosphatase PP1-alpha catalytic subunit (Homo sapiens, UniProt P62136); assay: inhibition of protein phosphatase 1 activity – biochemical, fluorescence, dose response (AID 2403);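 also: phosphatase turnover of OMFP into fluorescent 3-O-methylfluorescein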
X-box-binding protein 1 = X-box-binding protein 1 (Homo sapiens, UniProt P17861); type: functional, Cricetulus griseus;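 also: confirmatory dose-response counter-screen serving a CHOP assay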
Prothrombin = Prothrombin (Bos taurus, UniProt P00735); assay: thrombin protease inhibitors – biochemical, fluorescence polarization, uHTS hits, dose response (AID 602369); type: functional
[34] = target: Serine/threonine-protein phosphatase (Homo sapiens, UniProt Q9BPW0); assay: Counterscreen for inhibitors of PP1: fluorescence-based biochemical high throughput dose response assay to identify inhibitors of Protein Phosphatase 5 (PP5). [Related pubchem assays: 2034 (Summary (PP5 inhibitors)), 1987 (PP5 inhibitors in singlate), 2235 (PP1 inhibitors in singlate)]
[35] = target: 26S proteasome non-ATPase regulatory subunit 14 (Homo sapiens, UniProt O00487); assay: inhibition of proteasome subunit RPN11 – biochemical, fluorescence polarization, uHTS hits, confirmation (AID 602368); type: functional
[36] = HepG2 cell cytotoxicity, dose response, cytotoxicity control, set 3 (AID 504853); type: functional; conditions: Mycobacterium tuberculosis
[37] = Vero cell cytotoxicity, dose response, cytotoxicity control for M. tuberculosis growth inhibitor project, Vero cells, purified and synthesized compounds, set 4 (AID 504854); type: functional; conditions: Mycobacterium tuberculosis
[38] = Vero cell cytotoxicity, dose response, cytotoxicity control for M. tuberculosis growth inhibitor project, Vero cells, purified and synthesized compounds, set 5 (AID 504909); type: functional; conditions: Mycobacterium tuberculosis
[39] = THP-1 cell cytotoxicity, dose response, cytotoxicity control, set 3 (AID 504852); type: functional; conditions: Mycobacterium tuberculosis
[40] = A Cell Based Secondary Assay to Explore Cytotoxicity in HepG2 Cells of Compounds that Modulate Mycobacterium tuberculosis in Media Containing Glycerol versus Media without Glycerol (2).; type: functional
[41] = THP-1 cell cytotoxicity, cytotoxicity control, set 4 (AID 504911); type: functional; conditions: Mycobacterium tuberculosis
[42] = A Cell Based Secondary Assay to Explore Cytotoxicity in THP-1 Cells of Compounds that Modulate Mycobacterium tuberculosis in Media Containing Glycerol versus Media without Glycerol (2).; type: functional
[43] = Vero cell cytotoxicity, cytotoxicity control for M. tuberculosis inhibitor project, purified and synthesized samples, set 3 (AID 504684); type: functional
[44] = target: Casein kinase II subunit alpha (Homo sapiens, UniProt P68400); type: functional
[45] = target: Ribosomal protein S6 kinase alpha-3 (Homo sapiens, UniProt P51812); type: functional;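 also: measured within a kinome-wide profiling panel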
[46] = target: MAP kinase-activated protein kinase 2 (Homo sapiens, UniProt P49137); type: functional;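 also: measured as one member of a kinome-wide kinase panel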
[47] = target: Serine/threonine-protein kinase PLK3 (Homo sapiens, UniProt Q9H4B4); type: functional
Serine/threonine-protein kinase PLK3, sequence (Q9H4B4 whole entry): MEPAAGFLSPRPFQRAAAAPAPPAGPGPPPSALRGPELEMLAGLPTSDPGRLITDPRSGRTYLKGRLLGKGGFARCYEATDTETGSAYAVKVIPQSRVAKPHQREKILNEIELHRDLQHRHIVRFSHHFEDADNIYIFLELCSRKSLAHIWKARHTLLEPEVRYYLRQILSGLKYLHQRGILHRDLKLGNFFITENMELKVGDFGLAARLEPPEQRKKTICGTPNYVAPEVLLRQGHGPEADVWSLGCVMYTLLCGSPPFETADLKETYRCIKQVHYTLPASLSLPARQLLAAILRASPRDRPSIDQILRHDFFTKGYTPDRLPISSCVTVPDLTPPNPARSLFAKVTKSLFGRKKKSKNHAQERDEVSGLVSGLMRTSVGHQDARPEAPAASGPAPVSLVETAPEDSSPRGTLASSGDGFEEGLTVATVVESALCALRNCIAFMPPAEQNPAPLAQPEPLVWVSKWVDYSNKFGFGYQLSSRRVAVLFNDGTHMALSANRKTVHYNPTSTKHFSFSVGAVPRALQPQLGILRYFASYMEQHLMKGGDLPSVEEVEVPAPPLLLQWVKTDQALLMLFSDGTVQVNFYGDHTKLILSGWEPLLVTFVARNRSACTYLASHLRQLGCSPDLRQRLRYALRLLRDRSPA

[48] = target: Intestinal-type alkaline phosphatase (Homo sapiens, UniProt P09923); assay: inhibition of human intestinal alkaline phosphatase – biochemical, dose response (AID 488876); type: functional
CHO = CHO cell viability loss, potency – luminescence, cytotoxicity control for TLR9-MyD88 binding inhibitor project, dose response (AID 588339); type: functional, cell-based, hamster; conditions: Cricetulus griseus;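 also: CHO cells stably coexpressing TLR9 and MyD88 fusions from primary screen; compound exposure lasted 48 hours before viability readout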
[49] = target: Intestinal-type alkaline phosphatase (Mus musculus, UniProt P24822); assay: PubChem AID 488785; type: functional
[50] = target: T2, Alkaline phosphatase, tissue-nonspecific isozyme (Homo sapiens, UniProt P05186); assay: TNAP enzyme inhibition by screening hits, dose response, selectivity assay for mouse IAP inhibitor project, biochemical, human TNAP, uHTS hits (AID 488906); type: functional
T2 sequence (P05186 whole entry): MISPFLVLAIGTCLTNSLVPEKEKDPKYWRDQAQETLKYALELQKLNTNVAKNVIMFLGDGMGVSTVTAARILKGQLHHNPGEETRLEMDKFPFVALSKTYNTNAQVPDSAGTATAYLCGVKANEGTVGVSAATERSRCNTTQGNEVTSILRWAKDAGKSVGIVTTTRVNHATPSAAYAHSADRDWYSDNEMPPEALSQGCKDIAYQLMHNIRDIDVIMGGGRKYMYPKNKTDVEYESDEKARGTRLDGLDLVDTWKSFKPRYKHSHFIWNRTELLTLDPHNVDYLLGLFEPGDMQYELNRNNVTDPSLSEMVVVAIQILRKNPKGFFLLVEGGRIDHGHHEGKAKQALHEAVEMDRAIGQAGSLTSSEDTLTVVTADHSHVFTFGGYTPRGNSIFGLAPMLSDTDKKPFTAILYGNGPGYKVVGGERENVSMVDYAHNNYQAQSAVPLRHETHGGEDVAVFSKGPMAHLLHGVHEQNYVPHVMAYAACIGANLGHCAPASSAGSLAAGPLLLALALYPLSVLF

Beta Lactamase = Beta Lactamase (Pseudomonas aeruginosa, UniProt Q932Y6); assay: BLA reporter interference, concentration series – BLA reporter cells, FRET fluorescence, artefact control for TLR9-MyD88 binding inhibitor project, dose response (AID 588341); type: cell-based;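 also: cell based assay in CHO-K1 cells stably expressing beta-lactamase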

SMILES: Nc1nc(NCC2CCCO2)nc(Nc2ccc(F)cc2)c1[N+](=O)[O-] (stereo unspecified)
- AC50 [1]: 0.802 µM (active)
- AC50 [2]: 2.42 µM (active)

SMILES: CCC1C(=O)N(C)c2cnc(Nc3ccc(C(=O)NC4CCN(C)CC4)cc3OC)nc2N1C1CCCC1 (stereo unspecified)
- Ki [3]: > 10 µM (inactive)
- Ki [4]: > 3.98 µM (inactive)
- Ki [5]: 0.2 µM (active)
- Ki [6]: 0.631 µM (active)
- Ki [7]: > 6.31 µM (inactive)
- Ki [8]: > 6.31 µM (inactive)
- Ki [9]: > 2 µM (inactive)
- Ki [10]: > 2.51 µM (inactive)
- Ki [11]: > 6.31 µM (inactive)
- Ki [12]: 1.58 µM (active)
- Ki [13]: > 3.16 µM (inactive)
- Ki [14]: > 6.31 µM (inactive)
- Ki [15]: > 3.16 µM (inactive)
- Ki [16]: > 2 µM (inactive)
- Ki [17]: > 0.631 µM (inactive)
- Ki [18]: > 5.01 µM (inactive)
- Ki [19]: > 2 µM (inactive)

SMILES: O=C(Nc1ccc(CO)cc1)c1cnn2c(-c3ccccc3)ccnc12
- Ki [20]: > 10 µM (inactive)
- Ki [3]: > 10 µM (inactive)
- Ki [21]: > 10 µM (inactive)
- Ki [22]: > 7.94 µM (inactive)
- Ki [23]: 2.51 µM (active)
- Ki [24]: > 10 µM (inactive)
- Ki [25]: > 10 µM (inactive)
- Ki [26]: 1.26 µM (active)
- Ki [27]: 0.794 µM (active)
- Ki [28]: > 10 µM (inactive)
- Ki [29]: > 10 µM (inactive)
- Ki (LIM domain kinase 1): > 10 µM (inactive)
- Ki [30]: > 10 µM (inactive)
- Ki [31]: > 10 µM (inactive)

SMILES: O=C(N/N=C/c1ccccn1)c1cc(-c2ccc3ccccc3c2)[nH]n1
- IC50 [32]: > 100 µM (inactive)
- IC50 [33]: 6.53 µM (active)
- Absolute IC50 (XBP1) (X-box-binding protein 1): 10 µM
- IC50 (Prothrombin): 28.7 µM (active)
- IC50 [34]: > 67 µM (not active)
- IC50 [35]: 13 µM (active)

SMILES: Cc1cc(C)n2nc(N)c(/N=N/c3ccccc3)c2n1
- CC50 [36]: > 50 µM (active)
- CC50 [37]: 93 µM (active)
- CC50 [38]: > 100 µM (active)
- CC50 [39]: > 100 µM (active)
- CC50 [40]: > 50 µM (active)
- CC50 [41]: > 99.5 µM (active)
- CC50 [42]: > 100 µM (active)
- CC50 [43]: 83.7 µM (active)

SMILES: Nc1ccc2[nH]c(=O)cnc2c1
- Ki [44]: 12.6 µM (active)
- Ki [45]: 7.94 µM (active)
- Ki [46]: 10 µM (active)
- Ki [47]: 6.31 µM (active)

SMILES: COc1cc(/C=C/C(O)=C/C(=O)/C=C/c2ccc(O)cc2)ccc1O [DEMETHOXYCURCUMIN]
- IC50 [48]: > 100 µM (inactive)
- IC50 (CHO): 39.3 µM (inactive)
- IC50 [49]: 8.38 µM (active)
- IC50 [50]: > 100 µM (inactive)
- IC50 (Beta Lactamase): 8.09 µM (active)

From ChEMBL document CHEMBL1201862, “PubChem BioAssay data set” (2004)
